From patent publication US10570117B2, “Phenylimidazole compound” (Otsuka Pharmaceutical Factory, Inc., priority 2015, dated 2020)
Converted amounts (≈) assume the structure as drawn. Read-outs that look alike come from different tables or passages of the source.

Assays:
[1] = system: lipoprotein lipase (LPL) gene; test: LPL mRNA elevating action (RT-PCR quantification of LPL mRNA in C2Cl2 cells); assay type: cell-based, mouse; conditions: Mus musculus, 24 h, compound 10 μM, ratio relative to the amount of LPL mRNA in cells with DMSO only, read-out: Rate of increase in LPL mRNA
In short: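 Mouse striated-muscle C2Cl2 cells in DMEM with 10% FBS exposed to compounds at 10 μM for 24 h. LPL mRNA quantified by RT-PCR and real-time PCR (20 cycles), expressed as ratio to DMSO-only cells set at 1.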

[2] = Solubility in gastric juice or intestinal juice model fluid (precipitation method using DMSO); assay type: physicochemical; conditions: room temperature
In short: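 Compound in DMSO added to JP disintegration test fluid 1 (pH 1.2) or fluid 2 (pH 6.8) and shaken 24 h at room temperature. After filtration, dissolved concentration (μg/mL) determined by UV absorbance against compound calibration curves.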

[3] = pH 1.2, simulated gastric fluid, kinetic from dmso stock, 1st fluid for Disintegration Test of Japanese Pharmacopoeia (pH: 1.2), read-out: Solubility (μg/mL) 1st fluid
[4] = pH 6.8, kinetic from dmso stock, 2nd fluid for Disintegration Test of Japanese Pharmacopoeia (pH: 6.8), read-out: Solubility (μg/mL) 2nd fluid

Row | Structure (SMILES) | fold induction at 10 µM [1] | solubility at 24 h [2, 3] [µg/mL] | solubility at 24 h [2, 4] [µg/mL] | melting point | Solubility (μg/mL) 1st fluid ([2]; 1st fluid for Disintegration Test of Japanese Pharmacopoeia (pH: 1.2), 24 hours) [µg/mL]
1 | COc1cc(OCc2ncccc2C(F)(F)F)ccc1-c1[nH]c(C2CCC(F)(F)CC2)nc1Cl [Example 195] | 3.34 | > 100 | 0.6 (≈ 1.2 µM) | 162 to 164 °C | –
2 | Oc1cc(OCc2ncc(C(F)(F)F)cc2F)ccc1-c1cnc(-c2ccc(F)nc2)[nH]1 [Example 406, 5-[[3-fluoro-5-(trifluoromethyl)pyridin-2-yl]methoxy]-2-[2-(6-fluoropyridin-3-yl)-1H-imidazol-5-yl]phenol] | 2.62 | > 90 | 12.4 (≈ 27.7 µM) | 202 to 207 °C | –
3 | COc1cc(OCc2ccc(C(F)(F)F)cn2)ccc1-c1c[nH]c(-c2ccc(Cl)cn2)n1 [Example 42] | 2.27 | 8.6 (≈ 18.7 µM) | 2.3 (≈ 4.99 µM) | 147 to 150 °C | –
4 | COc1cc(OCc2ncc(C(F)(F)F)cc2F)ccc1-c1cnc(C2CCC(F)(F)CC2)[nH]1 [Example 335] | 2.37 | 93.4 (≈ 192 µM) | 6.6 (≈ 13.6 µM) | 105 to 110 °C | –
5 | COc1cc(OCc2ccc(C(F)(F)F)cn2)ccc1-c1c[nH]c(-c2ccc(O)nc2)n1 [Example 18] | 1.05 | 43.5 (≈ 98.3 µM) | 3.7 (≈ 8.36 µM) | > 250 °C | –
6 | COc1cc(OCc2ncc(Cl)cc2F)ccc1-c1[nH]c(-c2ccc(F)nc2)nc1Br [Example 267] | 2.66 | 17.7 (≈ 34.9 µM) | 0.4 (≈ 0.788 µM) | 175 to 178 °C | –
7 | COc1cc(OCc2ccc(C(F)(F)F)cn2)ccc1-c1c[nH]c(-c2ccc(F)nc2)n1 [Example 124] | 2.28 | 18.7 (≈ 42.1 µM) | < 1.6 | 141 to 144 °C | –
8 | COc1cc(-c2cnc(C3CCC(F)(F)CC3)[nH]2)ccc1OCc1ccc(C(F)(F)F)nc1 [Example 16] | 3.14 | 90.8 (≈ 194 µM) | 13.4 (≈ 28.7 µM) | 162 to 167 °C | –
9 | COc1cc(OCc2ccc(C(F)(F)F)cn2)ccc1-c1nc(-c2ccc(F)nc2)n(C)c1Cl [Example 169, 2-[[4-(5-chloro-2-(6-fluoropyridin-3-yl)-1-methyl-1H-imidazol-4-yl)-3-methoxyphenoxy]methyl]-5-(trifluoromethyl)pyridine] | 3.12 | 96.3 (≈ 195 µM) | < 0.4 | 158 to 160 °C (dec.) | –
10 | COc1c(OCc2ccc(C(F)(F)F)nc2)ccc(-c2[nH]c(C3CCC(F)(F)CC3)nc2Br)c1OC [Example 199] | 5.05 | > 115 | < 10.2 | 162 to 165 °C | –
11 | COc1cc(OCc2cc(C(C)C)no2)ccc1-c1cnc(-c2ccc(F)nc2)[nH]1 [Example 322] | 1.55 | 72 (≈ 176 µM) | 1.3 (≈ 3.18 µM) | 227 to 232 °C | –
12 | COc1cc(OCc2ccnc(C(F)(F)F)c2)ccc1-c1cnc(-c2ccc(Cl)nc2)[nH]1 [Example 107] | 2.68 | 11.2 (≈ 24.3 µM) | 9.6 (≈ 20.8 µM) | 174 to 223 °C | –
13 | COc1cc(OC(C)c2ccc(C(F)(F)F)cn2)ccc1-c1nc(-c2ccc(F)nc2)[nH]c1Cl (stereo not shown) [Example 207] | 2.5 | – | 0.4 (≈ 0.812 µM) | 166 to 169 °C | 83.4 (≈ 169 µM)
14 | COc1cc(OCc2ncc(C(F)(F)F)cc2F)ccc1-c1cnc(-c2ccc(Br)nc2)[nH]1 [Example 387] | 2.41 | 4.8 (≈ 9.17 µM) | 0.8 (≈ 1.53 µM) | 191 to 193 °C | –
15 | COc1cc(OCc2ccc(C(F)(F)F)cn2)ccc1-c1nc(-c2ccc(F)nc2)n(C)c1Br [Example 302] | 2.44 | > 107 | < 0.4 | 179 to 181 °C | –
16 | COc1cc(OCc2ncc(C(F)(F)F)cc2Cl)ccc1-c1cnc(-c2ccc(F)nc2)[nH]1 [Example 132] | 2.77 | 5.9 (≈ 12.3 µM) | < 0.3 | 185 to 187 °C | –

Row | Structure (SMILES) | fold induction at 10 µM [1] | solubility at 24 h [2, 3] [µg/mL] | solubility at 24 h [2, 4] [µg/mL] | melting point | Solubility (μg/mL) 1st fluid ([2]; 1st fluid for Disintegration Test of Japanese Pharmacopoeia (pH: 1.2), 24 hours) [µg/mL]
17 | COc1cc(-c2[nH]c(C3CC(F)(F)C3)nc2Cl)ccc1OCc1ccc(C(F)(F)F)nc1 [Example 179] | 2.66 | 25.8 (≈ 54.5 µM) | 2.3 (≈ 4.85 µM) | 170 to 174 °C | –
18 | Fc1ccc(-c2ncc(-c3ccc(OCc4ncc(C(F)(F)F)cc4F)cc3F)[nH]2)cn1 [Example 369] | 1.26 | 35.9 (≈ 79.7 µM) | < 0.3 | 167 to 172 °C | –
19 | COc1cc(OCc2cnc(C)cn2)ccc1-c1nc(-c2ccc(F)nc2)[nH]c1Cl [Example 216] | 2.62 | 84.3 (≈ 198 µM) | 1.8 (≈ 4.23 µM) | 208 to 210 °C (dec.) | –
20 | COc1cc(OCc2ccc(C(F)(F)F)nc2)ccc1-c1nc(-c2ccc(F)cn2)[nH]c1C [Example 23] | 2.94 | 13.1 (≈ 28.6 µM) | < 1.6 | 140 to 142 °C | –
21 | COc1cc(OCc2ncc(Cl)cc2F)ccc1-c1cnc(-c2ccc(Cl)nc2)[nH]1 [Example 104] | 2.27 | 20.6 (≈ 46.3 µM) | 0.7 (≈ 1.57 µM) | 211 to 218 °C | –
22 | Oc1ccc(-c2cnc(-c3ccc(F)nc3)[nH]2)cc1 [Example 343] | 1.42 | 50 (≈ 196 µM) | 39.2 (≈ 154 µM) | > 270 °C | –
23 | COc1cc(-c2[nH]c(C(C)C)nc2Cl)ccc1OCc1ncc(C(F)(F)F)cc1F [Example 386] | 2.77 | 82.7 (≈ 186 µM) | 0.9 (≈ 2.03 µM) | 188 to 191 °C (dec.) | –
24 | COc1cc(-c2cnc(C(C)(C)C)[nH]2)ccc1OCc1ncc(C(F)(F)F)cc1F [Example 380] | 1.18 | 81.2 (≈ 192 µM) | 63.7 (≈ 150 µM) | 178 to 182 °C | –
25 | Cc1cc(OCc2ncc(C(F)(F)F)cc2F)ccc1-c1cnc(-c2ccc(F)nc2)[nH]1 [Example 351] | 4.12 | 85.9 (≈ 192 µM) | 7 (≈ 15.7 µM) | 216 to 222 °C | –
26 | COc1cc(OCc2ccc(C(F)(F)F)nc2)ccc1-c1nc(-c2ccc(Cl)nc2)n(CC2CC2)c1C [Example 154] | 5.78 | 104 (≈ 196 µM) | 2 (≈ 3.78 µM) | 110 to 112 °C | –
27 | COc1cc(OCc2ncc(C(F)(F)F)cc2F)ccc1-c1cnc(C2CCCC2)[nH]1 [Example 365] | 3.02 | 77.9 (≈ 179 µM) | 31.2 (≈ 71.7 µM) | 97 to 102 °C | –
28 | COc1cc(OCc2ncc(C(F)(F)F)cc2F)ccc1-c1[nH]c(C2CC(F)(F)C2)nc1Cl [Example 353] | 4.08 | 85.4 (≈ 174 µM) | 0.5 (≈ 1.02 µM) | 167 to 169 °C | –
29 | COc1cc(OCc2c(F)cc(C(F)(F)F)c[n+]2[O-])ccc1-c1[nH]c(-c2ccc(F)nc2)nc1Cl [Example 317] | 2.9 | 69.1 (≈ 135 µM) | 9.3 (≈ 18.1 µM) | 105 to 110 °C | –
30 | COc1cc(-c2[nH]c(C(C)(C)C)nc2Cl)ccc1OCc1ncc(C(F)(F)F)cc1F [Example 384] | 1.84 | 86.4 (≈ 189 µM) | 1.2 (≈ 2.62 µM) | 179 to 184 °C | –
31 | COc1cc(OCc2ncc(C(F)(F)F)cc2F)ccc1-c1[nH]c(C2CCC(F)(F)CC2)nc1Cl [Example 336] | 3.23 | 89.3 (≈ 172 µM) | 0.4 (≈ 0.769 µM) | 172 to 174 °C | –
